Reference: US12522616B2, “Thiazololactam compound as ERK inhibitor and use thereof” (D3 BIO (WUXI) CO., LTD., priority 2019, dated 2026)
pIC50: −log10 of the molar value. One block for each compound: values may come before it.

Key:
[1] = biological target: ERK2 kinase (Homo sapiens (Human), UniProt P28482); test: Assay of in vitro kinase activity (33P-ATP filter-binding, MBP substrate); assay type: biochemical; conditions: remaining kinase activity vs DMSO control
Procedure: Assay Example 1. Assay of In Vitro Kinase Activity
The ability of compounds to inhibit ERK2 kinase activity was measured.
20 mM Hepes (pH 7.5), 10 mM MgCl2, 1 mM ethylenebis(oxyethylenenitrilo)tetraacetic acid (EGTA), 0.02% Brij35, 0.02 mg/mL bovine serum albumin (BSA), 0.1 mM Na3VO4, 2 mM dithiothreitol (DTT), 1% DMSO.
The assay compound was dissolved in 100% DMSO to prepare a stock solution of specific concentration. The compound was serially diluted in DMSO solution using Integra Viaflo Assist smart pipette.
• 1) The substrate MBP was prepared in freshly prepared reaction buffer; • 2) ERK2 kinase was added to the above-mentioned MBP solution and mixed gently; • 3) The compound dissolved in 100% DMSO was added to the kinase reaction system using ultrasound technology (Echo550; nanoliter range), and the mixture was incubated at room temperature for 20 minutes; • 4)^33P-ATP (specific concentration of […]) was added to the reaction system, and the reaction was started at this time; • 5) The mixture was incubated at room temperature for 2 hours; • 6) The amount of radioactivity was detected by filter-binding method; • 7) ERK2 kinase activity was calculated as the ratio of the remaining kinase activity in the assay sample to the kinase activity of the control group (treated by DMSO). Curve was fitted using Prism (GraphPad software) and IC50 values were calculated. 5.

[2] = system: HT29 tumor cells; test: Assay of in vitro cell proliferation inhibition (CellTiterGlo); assay type: cell-based; conditions: Homo sapiens, HT-29
Procedure: Assay Example 2. Assay of In Vitro Cell Proliferation Inhibition
The ability of compounds to inhibit the proliferation of HT29 tumor cells was measured.
The assay compound was dissolved in 100% DMSO to prepare 10 mM stock solution.
• 1) UV light of a biological safety cabin was turned on, and 30 minutes were counted down; • 2) In a 37° C. water bath, RPMI1640 medium and trypsin were preheated; • 3) After completion of the UV irradiation, the biological safety cabin was opened. • The preheated medium, trypsin and phosphate buffered saline (PBS), etc. were wiped with alcohol and placed in the biological safety cabin; • 4) HT29 cells were removed from the incubator, and the old medium was removed in biological safety cabin. 10 ml of PBS was added. The mixture was shaken gently, and then PBS was removed; • 5) 1.5 ml of preheated 0.25% trypsin was added. The culture vessel was shaken horizontally so that the trypsin evenly covered the cells at the bottom, and placed in an incubator for 2 minutes; • 6) Cell digestion was stopped with complete medium, and the cell suspension was pipetted to homogeneity and counted; • 7) According to the result of cell counting, the density of cell suspension was adjusted to 1500 cells per well, and the cell suspension was seeded at 50 μl per well; • 8) The stock solution of compounds was serially diluted in DMSO solution, and compounds were added to cell plate using Tecan; • 9) The compound-added cell plate and CellTiterGlo were equilibrated at room temperature, and 25 microliters of CellTiterGlo was then added to each well. The cell plate was shaken for 1-2 minutes and then allowed to stand for 10 minutes. The signal value was then detected. The data were analyzed using XL-Fit, and the IC50 of each compound was calculated. 4.

[3] = In vivo DMPK assay in mouse; conditions: female BALB/c mice; for Oral DNAUC (AUCPO/Dose) / bioavailability / Cmax: 3 mg/kg orally; for clearance / Vd / bioavailability / half-life / Cmax: mouse, plasma; for clearance / Vd: iv; for clearance / Vd / bioavailability: 1 mg/kg intravenously; for clearance: read-out: Cl (clearance rate); for Vd: read-out: Vdss (distribution volume); for bioavailability / Cmax: po; for bioavailability: read-out: F % (oral bioavailability); for half-life: single administration, read-out: T1/2 (half-life) (converted); for Cmax: read-out: Cmax (maximum concentration)
Excerpt: Assay Example 3. Assay of In Vivo DMPK
In vivo DMPK assay in mouse
Female BALB/c mice were used as assay animals to determine the blood concentration of compounds and evaluate the pharmacokinetic behavior after a single administration.
Eight healthy adult female BALB/c mice were selected, wherein 4 mice were in the intravenous injection group and 4 mice were in the oral group. The vehicle in the intravenous injection group was 5% DMSO+95% (20% HP-β-CD). The compound to be assayed was mixed with an appropriate amount of vehicle for intravenous injection, vortexed and sonicated to prepare a clear solution of 0.5 mg/mL. The clear solution was filtered by a microporous membrane, and then ready for use. The vehicle in the oral group was 5% DMSO+95% (20% HP-β-CD). The compound to be assayed was mixed with the vehicle, vortexed and sonicated to prepare a solution of 0.3 mg/mL. Mice were administered 1 mg/kg intravenously or 3 mg/kg orally, and then whole blood was collected for a certain period. Plasma was prepared. The drug concentration was analyzed by LC-MS/MS method, and the pharmacokinetic parameters were calculated by Phoenix WinNonlin software (Pharsight, USA).
Note: DMSO: dimethyl sulfoxide; HP-β-CD: hydroxypropyl-β-cyclodextrin.

[4] = system: human non-small cell lung cancer H358 cells; test: In vivo efficacy in mouse H358 subcutaneous xenograft model; conditions: BALB/c nude mouse, 30 mg/kg PO QD
Procedure: Animals were monitored daily for health and death. […] Animal deaths and side effects in each group were recorded based on the number of animals in each group. […] 5.

Chain of ERK2 kinase (P28482 whole entry): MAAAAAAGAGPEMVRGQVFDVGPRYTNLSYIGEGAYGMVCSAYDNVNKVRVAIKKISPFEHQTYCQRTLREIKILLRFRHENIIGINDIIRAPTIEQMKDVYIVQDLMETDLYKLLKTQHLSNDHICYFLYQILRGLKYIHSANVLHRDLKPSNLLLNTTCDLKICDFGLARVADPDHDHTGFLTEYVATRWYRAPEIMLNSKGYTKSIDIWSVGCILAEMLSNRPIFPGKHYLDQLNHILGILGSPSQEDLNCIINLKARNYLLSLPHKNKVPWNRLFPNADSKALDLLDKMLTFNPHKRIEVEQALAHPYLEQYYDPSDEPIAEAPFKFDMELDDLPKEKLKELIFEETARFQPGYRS

SMILES: Cn1nccc1Nc1nccc(-c2nc3c(s2)C(C)(C)N(Cc2cccc(Cl)c2)C3=O)n1 [WX001]
pIC50 [1]: 9.62 | pIC50 [2]: 7.85 | Oral DNAUC (AUCPO/Dose) [3]: 2153 nM · h/mpk | clearance [3]: 14.3 mL/min/kg | Vd [3]: 1.1 L/kg | bioavailability [3]: 86% | half-life [3]: 54 min | Cmax [3]: 3360 nM

SMILES: CC1(C)c2sc(-c3ccnc(NC4CCOCC4)n3)nc2C(=O)N1Cc1cccc(Cl)c1 [WX007]
pIC50 [1]: 9.41 | pIC50 [2]: 7.59

SMILES: Cc1cnc(Nc2ccnn2C)nc1-c1nc2c(s1)C(C)(C)N(Cc1cccc(F)c1)C2=O [WX006]
pIC50 [1]: 9.52 | pIC50 [2]: 8.15 | Oral DNAUC (AUCPO/Dose) [3]: 530 nM · h/mpk | clearance [3]: 23 mL/min/kg | Vd [3]: 1.7 L/kg | bioavailability [3]: 34% | half-life [3]: 60 min | Cmax [3]: 1040 nM | body weight of assay animals ([4]; to the 28th day): did not decrease significantly | morbidity or death ([4]; to the 28th day): no morbidity or death | TGI (inhibition rate of tumor growth) ([4]; H358 xenograft, 28th day): 94%

SMILES: Cn1nccc1Nc1nccc(-c2nc3c(s2)C(C)(C)N(Cc2cccc(F)c2)C3=O)n1 [WX002]
pIC50 [1]: 9.46 | pIC50 [2]: 7.62

SMILES: Cc1cnc(Nc2ccnn2C(F)F)nc1-c1nc2c(s1)C(C)(C)N(Cc1cccc(F)c1)C2=O [WX008]
pIC50 [1]: 9.28 | pIC50 [2]: 7.24

SMILES: Cn1nccc1Nc1nccc(-c2nc3c(s2)C(C)(C)N(Cc2ccc(F)c(F)c2)C3=O)n1 [WX003]
pIC50 [1]: 9.43 | pIC50 [2]: 7.57

SMILES: CC1(C)c2sc(-c3ccnc(NC4CCOCC4)n3)nc2C(=O)N1Cc1cccc(F)c1 [WX004]
pIC50 [1]: 9.60 | pIC50 [2]: 7.46

SMILES: Cc1cnc(Nc2ccnn2C)nc1-c1nc2c(s1)C(C)(C)N(Cc1cccc(Cl)c1)C2=O [WX005]
pIC50 [1]: 10.30 | pIC50 [2]: 8.10 | Oral DNAUC (AUCPO/Dose) [3]: 468 nM · h/mpk | Cmax [3]: 1030 nM

Next, values leading:

pIC50 [1]: 9.85 | pIC50 [2]: 7.57
SMILES: Cc1cc(Nc2ncc(C)c(-c3nc4c(s3)C(C)(C)N(Cc3cccc(F)c3)C4=O)n2)n(C)n1 [WX010]

pIC50 [1]: 9.01 | pIC50 [2]: 7.59
SMILES: COCCn1nccc1Nc1ncc(C)c(-c2nc3c(s2)C(C)(C)N(Cc2cccc(F)c2)C3=O)n1 [WX011]

pIC50 [1]: 9.19 | pIC50 [2]: 8.22 | Oral DNAUC (AUCPO/Dose) [3]: 820 nM · h/mpk | clearance [3]: 28 mL/min/kg | Vd [3]: 1.7 L/kg | bioavailability [3]: 67% | half-life [3]: 102 min | Cmax [3]: 1170 nM
SMILES: [2H]C([2H])([2H])n1nccc1Nc1ncc(C)c(-c2nc3c(s2)C(C)(C)N(Cc2cccc(F)c2)C3=O)n1 [WX009]

pIC50 [1]: 9.72 | pIC50 [2]: 7.74
SMILES: COc1cc(Nc2ncc(C)c(-c3nc4c(s3)C(C)(C)N(Cc3cccc(F)c3)C4=O)n2)n(C)n1 [WX013]

pIC50 [1]: 9.32 | pIC50 [2]: 7.43
SMILES: Cc1cnc(Nc2ccnn2C2CC2)nc1-c1nc2c(s1)C(C)(C)N(Cc1cccc(F)c1)C2=O [WX012]
